Source: US11306079B2, “3-(5-amino-pyrazin-2-yl)-benzenesulfonamide derivatives and related compounds as PI3K-gamma kinase inhibitors” (Incyte Corporation, priority 2017, dated 2022)
Structures can show the parent of a compound that is named as a salt.

What was measured:
[1] = target: PI3Kδ (p110δ/p85α) Recombinant Human Protein (Homo sapiens (Human), UniProt O00329); experiment: PI3Kδ Scintillation Proximity Assay; assay type: biochemical; details: 20 μM PIP2, 2 μM ATP, 3.4 nM PI3Kδ, 120 min, room temperature
Description: Example C. PI3Kδ Scintillation Proximity Assay
(§1) [γ-^33P]ATP (10 mCi/mL) and Wheat Germ Agglutinin (WGA) YSi SPA Scintillation Beads was purchased from Perkin-Elmer (Waltham, Mass.). Lipid kinase substrate, D-myo-Phosphatidylinositol 4,5-bisphosphate (PtdIns(4,5)P2)D (+)-sn-1,2-di-O-octanoylglyceryl, 3-O-phospho linked (PIP2), CAS 204858-53-7, was purchased from Echelon Biosciences (Salt Lake City, Utah). PI3Kδ (p110δ/p85α) Recombinant Human Protein was purchased from Eurofins (St Charles, Mo.). ATP, MgCl2, DTT, EDTA, MOPS and CHAPS were purchased from Sigma-Aldrich (St. Louis, Mo.).
(§2) The kinase reaction was conducted in polystyrene 384-well Greiner Bio-one white plate from Thermo Fisher Scientific in a final volume of 25 μL. Inhibitors were first diluted serially in DMSO and added to the plate wells before the addition of other reaction components. The final concentration of DMSO in the assay was 2%. The PI3Kδ assay was carried out at room temperature in 20 mM MOPS, pH 6.7, 10 mM MgCl2, 5 mM DTT and CHAPS 0.03%. Reactions were initiated by the addition of ATP, the final reaction mixture consisted of 20 μM PIP2, 2 μM ATP, 0.5 μCi [γ-^33P] ATP, 3.4 nM PI3Kδ. Reactions were incubated for 120 min and terminated by the addition of 40 μL SPA beads suspended in quench buffer: 163 mM potassium phosphate pH 7.8, 20% glycerol, 25 mM EDTA. The final concentration of SPA beads is 1.0 mg/mL. After the plate sealing, plates were shaken overnight at room temperature and centrifuged at 1500 rpm for 10 min, the radioactivity of the product was determined by scintillation counting on Topcount (Perkin-Elmer). IC50 determination was performed by fitting the curve of percent of the solvent control activity versus the log of the inhibitor concentration using the GraphPad Prism 6.0 software.

[2] = target: PI3Kγ (p110γ) Recombinant Human Protein (Homo sapiens (Human), UniProt P48736); experiment: PI3K-γ Scintillation Proximity Assay; assay type: biochemical; details: 20 μM PIP2, 2 μM ATP, 13 nM PI3Kγ, 120 min, room temperature
Description: Example B. PI3K-γ Scintillation Proximity Assay
as §1, with “PI3Kγ (p110γ)” for “PI3Kδ (p110δ/p85α)”, “Life technology (Grand island, NY),” for “Eurofins (St Charles, Mo.).”
as §2, with “PI3Kγ” for “PI3Kδ”, “13” for “3.4”, “PI3Kγ.” for “PI3Kδ.”

[3] = tested on: Phosphorylated Ribosomal Protein S6 (RPS6) in THP-1 cells; experiment: THP-1 RPS6 ELISA Assay; assay type: cell-based; details: Homo sapiens; serum starved THP-1 cells, 2 hours with compound, 10 nM MCP-1 for 15 minutes, Phospho-RPS6 ELISA; read-out: PI3Kγ_THP1_RPS6_ELISA IC50
Method: Example A. THP-1 RPS6 ELISA Assay
To measure the Phosphorylated Ribosomal Protein S6 (RPS6) in cell lysates, THP-1 cells (Human Acute Monocytic Leukemia) are purchased from ATCC (Manassas, Va.) and maintained in RPMI with 10% FBS (Gibco/Life Technologies, Carlsbad, Calif.). For the assay, THP-1 cells are serum starved overnight in RPMI, then plated in RPMI (2×10^5 cells/well in 90 μL) into 96-well flat-bottom tissue culture treated plates (Corning, Corning, N.Y.), in the presence or absence of a concentration range of test compounds. Covered plates are incubated for 2 hours at 37° C., 5% CO2 then treated with or without 10 nM MCP-1 (MYBioSource, San Diego, Calif.) for 15 minutes at 37° C., 5% CO2. Plates are centrifuged at 1600 RPM and supernatants are removed. Cells are lysed in Lysis Buffer (Cell Signaling, Danvers, Mass.) with Protease Inhibitor (Calbiochem/EMD, Germany), PMSF (Sigma, St Louis Mo.), HALTS (Thermo Fisher, Rockford, Ill.) for 30 min on wet ice. Cell lysates are frozen at −80° C. before testing. The lysates are tested in the Human/Mouse/Rat Phospho-RPS6 ELISA (R&D Systems, Inc. Minn, Minn.). The plate is measured using a microplate reader (SpectraMax M5—Molecular Devices, LLC Sunnyvale, Calif.) set to 450 nm with a wavelength correction of 540. IC50 determination is performed by fitting the curve of inhibitor percent inhibition versus the log of the inhibitor concentration using the GraphPad Prism 5.0 software.

Sequence of PI3Kδ (p110δ/p85α) Recombinant Human Protein (O00329 whole entry): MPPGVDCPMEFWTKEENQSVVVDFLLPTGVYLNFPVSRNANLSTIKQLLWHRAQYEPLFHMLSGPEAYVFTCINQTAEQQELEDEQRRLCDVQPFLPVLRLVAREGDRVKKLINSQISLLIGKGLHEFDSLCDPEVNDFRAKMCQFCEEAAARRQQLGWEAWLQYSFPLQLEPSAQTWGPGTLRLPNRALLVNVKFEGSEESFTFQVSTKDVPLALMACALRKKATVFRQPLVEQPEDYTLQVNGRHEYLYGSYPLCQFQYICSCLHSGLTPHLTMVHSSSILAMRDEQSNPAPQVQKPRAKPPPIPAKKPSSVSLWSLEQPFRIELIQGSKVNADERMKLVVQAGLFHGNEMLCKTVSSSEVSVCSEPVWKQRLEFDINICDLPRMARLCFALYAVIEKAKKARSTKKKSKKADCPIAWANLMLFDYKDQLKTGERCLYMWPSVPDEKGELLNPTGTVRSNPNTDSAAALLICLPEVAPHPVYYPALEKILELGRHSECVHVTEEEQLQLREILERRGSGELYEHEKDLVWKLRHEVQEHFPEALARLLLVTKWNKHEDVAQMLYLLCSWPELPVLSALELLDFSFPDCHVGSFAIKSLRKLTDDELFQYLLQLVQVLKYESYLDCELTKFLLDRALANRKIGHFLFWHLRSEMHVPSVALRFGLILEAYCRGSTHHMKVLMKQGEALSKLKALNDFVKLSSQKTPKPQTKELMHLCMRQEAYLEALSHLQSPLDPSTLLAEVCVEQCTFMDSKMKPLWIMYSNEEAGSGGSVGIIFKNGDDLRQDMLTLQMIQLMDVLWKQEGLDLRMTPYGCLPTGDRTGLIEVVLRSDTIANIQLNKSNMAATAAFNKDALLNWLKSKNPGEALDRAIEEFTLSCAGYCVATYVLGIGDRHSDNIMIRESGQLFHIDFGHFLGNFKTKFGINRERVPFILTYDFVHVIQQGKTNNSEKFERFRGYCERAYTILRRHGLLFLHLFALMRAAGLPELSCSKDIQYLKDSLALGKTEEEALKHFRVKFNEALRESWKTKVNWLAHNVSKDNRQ
Sequence of PI3Kδ (p110δ/p85α) Recombinant Human Protein (P27986 whole entry partner): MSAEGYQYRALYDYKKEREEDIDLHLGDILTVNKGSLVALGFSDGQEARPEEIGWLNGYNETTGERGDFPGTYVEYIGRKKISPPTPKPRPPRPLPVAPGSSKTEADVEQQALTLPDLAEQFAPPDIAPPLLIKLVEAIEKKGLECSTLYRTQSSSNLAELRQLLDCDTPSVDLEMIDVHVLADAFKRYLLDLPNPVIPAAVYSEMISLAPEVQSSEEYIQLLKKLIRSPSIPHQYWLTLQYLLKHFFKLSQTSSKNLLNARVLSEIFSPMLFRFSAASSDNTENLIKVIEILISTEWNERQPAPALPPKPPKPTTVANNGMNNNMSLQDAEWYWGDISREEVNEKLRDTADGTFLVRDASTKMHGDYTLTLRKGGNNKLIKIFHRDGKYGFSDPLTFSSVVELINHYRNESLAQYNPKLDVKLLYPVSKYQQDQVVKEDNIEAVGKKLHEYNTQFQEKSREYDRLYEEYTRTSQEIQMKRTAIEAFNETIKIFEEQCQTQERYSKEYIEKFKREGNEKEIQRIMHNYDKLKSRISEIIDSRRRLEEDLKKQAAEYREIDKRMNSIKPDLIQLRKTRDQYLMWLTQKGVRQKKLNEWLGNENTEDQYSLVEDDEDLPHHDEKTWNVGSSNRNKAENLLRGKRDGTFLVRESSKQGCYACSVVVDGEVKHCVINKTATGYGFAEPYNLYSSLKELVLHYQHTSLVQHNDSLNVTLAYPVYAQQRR
Sequence of PI3Kγ (p110γ) Recombinant Human Protein (P48736 whole entry): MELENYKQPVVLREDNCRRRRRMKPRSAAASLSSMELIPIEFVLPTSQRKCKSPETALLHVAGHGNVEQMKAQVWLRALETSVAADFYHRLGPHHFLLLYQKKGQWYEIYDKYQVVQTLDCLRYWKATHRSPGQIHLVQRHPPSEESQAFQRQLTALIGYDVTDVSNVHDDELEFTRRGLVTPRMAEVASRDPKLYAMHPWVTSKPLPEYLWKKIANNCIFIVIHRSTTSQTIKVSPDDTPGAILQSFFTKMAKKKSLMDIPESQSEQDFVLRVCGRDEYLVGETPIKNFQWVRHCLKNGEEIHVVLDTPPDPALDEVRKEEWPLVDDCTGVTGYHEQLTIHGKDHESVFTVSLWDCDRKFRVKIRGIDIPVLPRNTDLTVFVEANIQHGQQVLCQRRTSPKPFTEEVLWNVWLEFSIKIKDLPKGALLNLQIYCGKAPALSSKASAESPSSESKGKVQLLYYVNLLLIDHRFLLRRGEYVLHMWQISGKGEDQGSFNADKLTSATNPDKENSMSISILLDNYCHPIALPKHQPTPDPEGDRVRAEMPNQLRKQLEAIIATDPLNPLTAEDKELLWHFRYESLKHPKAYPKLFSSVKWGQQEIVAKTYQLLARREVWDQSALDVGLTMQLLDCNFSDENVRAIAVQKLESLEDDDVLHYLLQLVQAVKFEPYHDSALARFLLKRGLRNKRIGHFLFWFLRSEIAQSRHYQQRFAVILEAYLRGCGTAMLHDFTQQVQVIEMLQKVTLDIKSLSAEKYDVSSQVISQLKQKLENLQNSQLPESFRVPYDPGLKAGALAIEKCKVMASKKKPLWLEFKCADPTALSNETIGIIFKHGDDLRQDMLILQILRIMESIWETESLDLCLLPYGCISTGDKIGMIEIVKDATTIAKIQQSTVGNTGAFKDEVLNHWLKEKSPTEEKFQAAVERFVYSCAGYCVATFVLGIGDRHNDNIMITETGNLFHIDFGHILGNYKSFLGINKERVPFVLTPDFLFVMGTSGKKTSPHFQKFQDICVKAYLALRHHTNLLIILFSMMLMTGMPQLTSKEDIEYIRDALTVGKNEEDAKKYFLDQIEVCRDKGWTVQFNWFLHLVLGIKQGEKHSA

Row | Compound | IC50 [1] | IC50 [2] | IC50 [3]
1 | Cc1ccc(S(=O)(=O)NC23CCC(CO)(CC2)OC3)cc1-c1cnc(N)c(-c2ccnc(C#N)c2)n1 [Example 19, 3-(5-Amino-6-(2-cyanopyridin-4-yl)pyrazin-2-yl)-N-(1-(hydroxymethyl)-2-oxabicyclo[2.2.2]octan-4-yl)-4-methylbenzenesulfonamide trifluoroacetate salt] | ≤ 100 nM | ≤ 100 nM | ≤ 1000 nM
2 | Cc1ccc(S(=O)(=O)NC23CCC(CO)(CC2)OC3)cc1-c1cnc(N)c(-c2ccncc2F)n1 [Example 20, 3-(5-Amino-6-(3-fluoropyridin-4-yl)pyrazin-2-yl)-N-(1-(hydroxymethyl)-2-oxabicyclo[2.2.2]octan-4-yl)-4-methylbenzenesulfonamide trifluoroacetate salt] | ≤ 500 nM | ≤ 100 nM | ≤ 500 nM
3 | Cc1ccc(S(=O)(=O)NC23CCC(CO)(CC2)OC3)cc1-c1cnc(N)c(-c2ccnc(C(F)(F)F)c2)n1 [Example 21, 3-(5-Amino-6-(2-(trifluoromethyl)pyridin-4-yl)pyrazin-2-yl)-N-(1-(hydroxymethyl)-2-oxabicyclo[2.2.2]octan-4-yl)-4-methylbenzenesulfonamide trifluoroacetate salt] | ≤ 500 nM | ≤ 100 nM | ≤ 500 nM
4 | Cc1ccc(S(=O)(=O)NC23CC(C#N)(C2)C3)cc1-c1cnc(N)c(-n2cncn2)n1 [Example 23, 3-(5-Amino-6-(1H-1,2,4-triazol-1-yl)pyrazin-2-yl)-N-(3-cyanobicyclo[1.1.1]pentan-1-yl)-4-methylbenzenesulfonamide Trifluoroacetate Salt] | ≤ 100 nM | ≤ 100 nM | ≤ 500 nM
5 | Cc1ccc(S(=O)(=O)NC23CC(CO)(C2)C3)cc1-c1cnc(N)c(-n2cncn2)n1 [Example 24, 3-(5-Amino-6-(1H-1,2,4-triazol-1-yl)pyrazin-2-yl)-N-(3-(hydroxymethyl)bicyclo[1.1.1]pentan-1-yl)-4-methylbenzenesulfonamide trifluoroacetate salt] | ≤ 500 nM | ≤ 100 nM | ≤ 100 nM
6 | Cc1ccc(S(=O)(=O)NC23CCC(CO)(C2)C3)cc1-c1cnc(N)c(-n2cncn2)n1 [Example 25, 3-(5-Amino-6-(1H-1,2,4-triazol-1-yl)pyrazin-2-yl)-N-(4-(hydroxymethyl)bicyclo[2.1.1]hexan-1-yl)-4-methylbenzenesulfonamide trifluoroacetate salt] | ≤ 100 nM | ≤ 100 nM | ≤ 100 nM
7 | Cc1ccc(S(=O)(=O)NC23CCC(O)(CC2)C3)cc1-c1cnc(N)c(-n2cncn2)n1 [Example 26, 3-(5-Amino-6-(1H-1,2,4-triazol-1-yl)pyrazin-2-yl)-N-(4-hydroxybicyclo[2.2.1]heptan-1-yl)-4-methylbenzenesulfonamide trifluoroacetate salt] | ≤ 100 nM | ≤ 100 nM | ≤ 100 nM
8 | Cc1ccc(S(=O)(=O)NC23COC(CO)(C2)C3)cc1-c1cnc(N)c(-n2cncn2)n1 [Example 27, 3-(5-Amino-6-(1H-1,2,4-triazol-1-yl)pyrazin-2-yl)-N-(1-(hydroxymethyl)-2-oxabicyclo[2.1.1]hexan-4-yl)-4-methylbenzenesulfonamide trifluoroacetate salt] | ≤ 500 nM | ≤ 100 nM | ≤ 500 nM
9 | Cc1ccc(S(=O)(=O)NC23CCC(C#N)(C2)C3)cc1-c1cnc(N)c(-n2cncn2)n1 [Example 28, 3-(5-Amino-6-(1H-1,2,4-triazol-1-yl)pyrazin-2-yl)-N-(4-cyanobicyclo[2.1.1]hexan-1-yl)-4-methylbenzenesulfonamide trifluoroacetate salt] | ≤ 500 nM | ≤ 100 nM | ≤ 100 nM
10 | Cc1ccc(S(=O)(=O)NC23CC(C(C)(C)O)(C2)C3)cc1-c1cnc(N)c(-n2cncn2)n1 [Example 29, 3-(5-Amino-6-(1H-1,2,4-triazol-1-yl)pyrazin-2-yl)-N-(3-(2-hydroxypropan-2-yl)bicyclo[1.1.1]pentan-1-yl)-4-methylbenzenesulfonamide trifluoroacetate salt] | ≤ 500 nM | ≤ 100 nM | ≤ 500 nM
11 | Cc1ccc(S(=O)(=O)NC23CCC(O)(C2)C3)cc1-c1cnc(N)c(-n2cncn2)n1 [Example 30, 3-(5-Amino-6-(1H-1,2,4-triazol-1-yl)pyrazin-2-yl)-N-(4-hydroxybicyclo[2.1.1]hexan-1-yl)-4-methylbenzenesulfonamide Trifluoroacetate Salt] | ≤ 500 nM | ≤ 100 nM | ≤ 500 nM
12 | CNC(=O)OCC12CC(NS(=O)(=O)c3ccc(C)c(-c4cnc(N)c(-n5cncn5)n4)c3)(C1)C2 [Example 31, (3-(3-(5-Amino-6-(1H-1,2,4-triazol-1-yl)pyrazin-2-yl)-4-methylphenylsulfonamido)bicyclo[1.1.1]pentan-1-yl)methyl Methylcarbamate Trifluoroacetate Salt] | ≤ 500 nM | ≤ 100 nM | ≤ 500 nM
13 | Cc1ccc(S(=O)(=O)NC23CC(C(=O)N4CCC4)(C2)C3)cc1-c1cnc(N)c(-n2cncn2)n1 [Example 34, 3-(5-Amino-6-(1H-1,2,4-triazol-1-yl)pyrazin-2-yl)-N-(3-(azetidine-1-carbonyl)bicyclo[1.1.1]pentan-1-yl)-4-methylbenzenesulfonamide trifluoroacetate salt] | ≤ 500 nM | ≤ 100 nM | ≥ 1000 nM
14 | Cc1ccc(S(=O)(=O)NC23CC(C(=O)NCC(F)(F)F)(C2)C3)cc1-c1cnc(N)c(-n2cncn2)n1 [Example 35, 3-(3-(5-Amino-6-(1H-1,2,4-triazol-1-yl)pyrazin-2-yl)-4-methylphenylsulfonamido)-N-(2,2,2-trifluoroethyl)bicyclo[1.1.1]pentane-1-carboxamide trifluoroacetate salt] | ≤ 500 nM | ≤ 100 nM | ≤ 1000 nM
